Source: ChEMBL document CHEMBL5104164, “Design, synthesis, and biological evaluation of pyrrolopyrimidine derivatives as novel Bruton's tyrosine kinase (BTK) inhibitors” (Eur J Med Chem, 2022)
pIC50: −log10 of the molar value. Active and inactive are the calls of the source. The rule behind the calls is not given here.

Legend:
[1] = target: T1, Tyrosine-protein kinase BTK (Homo sapiens, UniProt Q06187); test: Inhibition of BTK (unknown origin) measured by ADP-Glo assay
[2] = Cmax in male BALB/c mouse at 2 mg/kg, iv; type: ADME, organism-based; parameters: dose 2 mg/kg, route iv; details: in vivo
[3] = Half-life in male BALB/c mouse at 2 mg/kg, iv; type: ADME, organism-based; details: in vivo
[4] = Apparent volume of distribution in male BALB/c mouse at 2 mg/kg, iv; type: ADME, organism-based; details: in vivo, read-out: Vz
[5] = Clearance in male BALB/c mouse at 2 mg/kg, iv; type: ADME, organism-based; details: in vivo
[6] = Oral bioavailability in male BALB/c mouse; type: ADME, organism-based; details: in vivo
[7] = Tmax in male BALB/c mouse at 10 mg/kg, po; type: ADME, organism-based; details: in vivo
[8] = Half-life in male BALB/c mouse at 10 mg/kg, po; type: ADME, organism-based; details: in vivo
[9] = target: Epidermal growth factor receptor (Homo sapiens) (UniProt P00533); test: Inhibition of EGFR (unknown origin) assessed as residual percent of control at 1 uM measured by DiscoverX kinome scan assay relative to control
Rec1 = test: Antiproliferative activity against human REC1 cells incubated for 72 hrs by CellTiter-Glo assay; type: functional, cell-based; details: Rec1, 72 h
Pfeiffer = test: Antiproliferative activity against human Pfeiffer cells incubated for 72 hrs by CellTiter-Glo assay; type: functional, cell-based
SUD4 = test: Antiproliferative activity against human SU-DHL-4 cells incubated for 72 hrs by CellTiter-Glo assay; type: functional, cell-based; details: SU-DHL-4, 72 h
[10] = target: T1, Tyrosine-protein kinase BTK; test: Inhibition of BTK in human TMD8 cells assessed as inhibition of BTK autophosphorylation at Tyr223 measured by Western blot analysis; type: cell-based
TMD8 [11] = test: Cell cycle arrest in human TMD8 cells assessed as accumulation of cells at S phase at 1 nM after 48 hrs by propidium iodide staining based flow cytometric analysis (reference value: 49.3%); type: functional
TMD8 [12] = test: Cell cycle arrest in human TMD8 cells assessed as accumulation of cells at G2 phase at 1 nM after 48 hrs by propidium iodide staining based flow cytometric analysis (reference value: 13.4%); type: functional
TMD8 [13] = test: Cell cycle arrest in human TMD8 cells assessed as accumulation of cells at G2 phase at 10 nM after 48 hrs by propidium iodide staining based flow cytometric analysis (reference value: 13.4%); type: functional
TMD8 [14] = test: Cell cycle arrest in human TMD8 cells assessed as accumulation of cells at S phase at 100 nM after 48 hrs by propidium iodide staining based flow cytometric analysis (reference value: 49.3%); type: functional
TMD8 [15] = test: Cell cycle arrest in human TMD8 cells assessed as accumulation of cells at G2 phase at 100 nM after 48 hrs by propidium iodide staining based flow cytometric analysis (reference value: 13.4%); type: functional
TMD8 [16] = test: Induction of apoptosis in human TMD8 cells assessed as apoptotic cells 100 nM incubated for 72 hrs by AnnexinV-FITC/propidium iodide staining based flow cytometric analysis; type: functional
[17] = Mutagenicity in Salmonella typhimurium TA98 at 1.5 to 1000 ug per plate by AMES test; type: toxicity, Salmonella enterica subsp. enterica serovar Typhimurium; details: dose 1.5-1000 µg
[18] = Mutagenicity in Salmonella typhimurium TA100 at 1.5 to 1000 ug per plate by AMES test; type: toxicity, Salmonella enterica subsp. enterica serovar Typhimurium; details: dose 1.5-1000 µg
[19] = Mutagenicity in Salmonella typhimurium TA1535 at 1.5 to 1000 ug per plate by AMES test; type: toxicity, Salmonella enterica subsp. enterica serovar Typhimurium; details: dose 1.5-1000 µg
[20] = Mutagenicity in Salmonella typhimurium TA1537 at 1.5 to 1000 ug per plate by AMES test; type: toxicity, Salmonella enterica subsp. enterica serovar Typhimurium; details: dose 1.5-1000 µg
TMD8 [21] = test: Antitumor activity against human TMD8 cells xenografted in female CB-17 SCID nude mouse assessed as tumor suppression at 12.5 to 25 mg/kg, po administered twice daily for 21 days; type: functional, organism-based; details: dose 12.5-25 mg/kg, time 21.0 day
TMD8 [22] = test: Antitumor activity against human TMD8 cells xenografted in female CB-17 SCID nude mouse assessed as tumor growth inhibition at 50 mg/kg, po administered twice daily for 21 days; type: functional; details: TMD8, 504 h, time 21 day, read-out: TGI
[23] = Toxicity in female CB-17 SCID nude mouse xenografted with human TMD8 cells assessed as effect on body weight at 12.5 to 50 mg/kg, po administered twice daily for 21 days; type: organism-based; details: in vivo, 504 h, dose 12.5-50 mg/kg, time 21 day
[24] = Toxicity in female CB-17 SCID nude mouse xenografted with human TMD8 cells assessed as reduction in white blood cells at 50 mg/kg, po administered twice daily for 21 days; type: organism-based; details: in vivo, 504 h, time 21 day
[25] = Toxicity in female CB-17 SCID nude mouse xenografted with human TMD8 cells assessed as reduction in monocytes at 50 mg/kg, po administered twice daily for 21 days; type: organism-based; details: in vivo, 504 h, time 21 day
[26] = Mutagenicity in Salmonella typhimurium TA98 at 1.5 to 1000 ug per plate in presence of liver microsomes by AMES test; type: toxicity, Salmonella enterica subsp. enterica serovar Typhimurium; details: dose 1.5-1000 µg
[27] = Mutagenicity in Salmonella typhimurium TA100 at 1.5 to 1000 ug per plate in presence of liver microsomes by AMES test; type: toxicity, Salmonella enterica subsp. enterica serovar Typhimurium; details: dose 1.5-1000 µg
[28] = Mutagenicity in Salmonella typhimurium TA1535 at 1.5 to 1000 ug per plate in presence of liver microsomes by AMES test; type: toxicity, Salmonella enterica subsp. enterica serovar Typhimurium; details: dose 1.5-1000 µg

T1 sequence (Q06187 whole entry): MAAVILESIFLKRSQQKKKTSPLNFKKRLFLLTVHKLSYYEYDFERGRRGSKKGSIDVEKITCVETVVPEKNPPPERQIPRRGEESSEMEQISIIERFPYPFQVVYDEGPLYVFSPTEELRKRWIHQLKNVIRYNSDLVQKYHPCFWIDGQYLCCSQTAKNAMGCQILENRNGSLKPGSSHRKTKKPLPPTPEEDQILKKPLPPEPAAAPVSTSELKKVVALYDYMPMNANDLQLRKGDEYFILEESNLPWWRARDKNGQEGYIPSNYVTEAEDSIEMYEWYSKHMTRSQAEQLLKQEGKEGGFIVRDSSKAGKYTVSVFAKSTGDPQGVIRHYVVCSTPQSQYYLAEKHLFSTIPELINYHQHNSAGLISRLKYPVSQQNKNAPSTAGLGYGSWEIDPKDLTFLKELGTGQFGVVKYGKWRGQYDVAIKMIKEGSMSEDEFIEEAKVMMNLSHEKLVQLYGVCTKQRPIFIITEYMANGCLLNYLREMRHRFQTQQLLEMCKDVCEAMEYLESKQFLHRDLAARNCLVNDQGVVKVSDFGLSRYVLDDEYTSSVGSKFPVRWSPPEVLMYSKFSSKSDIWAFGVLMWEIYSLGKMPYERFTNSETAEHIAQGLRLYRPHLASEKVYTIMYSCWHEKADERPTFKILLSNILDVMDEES
Sequence of Epidermal growth factor receptor (Homo sapiens) (P00533 whole entry): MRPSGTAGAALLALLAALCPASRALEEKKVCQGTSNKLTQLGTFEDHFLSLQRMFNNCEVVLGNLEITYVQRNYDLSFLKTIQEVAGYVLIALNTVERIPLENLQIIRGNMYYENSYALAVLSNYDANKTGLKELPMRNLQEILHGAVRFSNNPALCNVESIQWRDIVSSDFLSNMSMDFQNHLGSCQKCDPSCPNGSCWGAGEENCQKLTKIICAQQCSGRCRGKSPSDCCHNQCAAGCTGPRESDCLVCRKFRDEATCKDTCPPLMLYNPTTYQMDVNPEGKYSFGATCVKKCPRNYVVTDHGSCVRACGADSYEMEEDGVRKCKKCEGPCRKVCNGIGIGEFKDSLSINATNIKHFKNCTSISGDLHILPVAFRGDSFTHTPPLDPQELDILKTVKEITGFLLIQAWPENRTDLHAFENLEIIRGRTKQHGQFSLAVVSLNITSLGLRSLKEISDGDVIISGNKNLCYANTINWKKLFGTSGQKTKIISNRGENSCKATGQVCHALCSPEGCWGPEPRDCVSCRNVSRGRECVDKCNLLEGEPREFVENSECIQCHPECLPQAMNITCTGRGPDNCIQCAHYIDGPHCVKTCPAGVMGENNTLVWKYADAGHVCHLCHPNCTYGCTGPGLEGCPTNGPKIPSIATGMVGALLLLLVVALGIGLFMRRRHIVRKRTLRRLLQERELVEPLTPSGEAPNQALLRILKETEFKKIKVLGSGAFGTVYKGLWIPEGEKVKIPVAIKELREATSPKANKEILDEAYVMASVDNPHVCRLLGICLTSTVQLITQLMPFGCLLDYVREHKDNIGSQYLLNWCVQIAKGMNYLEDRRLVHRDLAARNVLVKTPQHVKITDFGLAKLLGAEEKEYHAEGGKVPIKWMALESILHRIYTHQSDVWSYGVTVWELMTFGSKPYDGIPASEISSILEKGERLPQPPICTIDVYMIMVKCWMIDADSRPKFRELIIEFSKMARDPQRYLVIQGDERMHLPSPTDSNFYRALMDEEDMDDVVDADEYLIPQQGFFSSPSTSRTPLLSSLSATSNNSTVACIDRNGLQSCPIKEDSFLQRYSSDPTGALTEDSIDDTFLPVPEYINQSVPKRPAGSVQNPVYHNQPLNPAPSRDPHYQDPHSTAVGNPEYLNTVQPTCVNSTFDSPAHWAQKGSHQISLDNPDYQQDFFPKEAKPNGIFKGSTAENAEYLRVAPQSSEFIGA

## C=CC(=O)N1CC=C(c2c[nH]c3ncnc(-c4ccc(CNC(=O)c5ccccc5)c(F)c4)c23)CC1
[1]
  pIC50: 9.15
[2]
  Cmax: 2250 ng/mL
[3]
  half-life: 40.2 min
[4]
  Vd: 2.79 L/kg
[5]
  clearance: 47.8 mL/min/kg
[6]
  bioavailability: 41%
[7]
  Tmax: 23.4 min
[8]
  half-life: 35.4 min
[9]
  Activity: 44%
Rec1
  pIC50: 8.77
Pfeiffer
  pIC50: < 5.00
SUD4
  pIC50: < 5.00
[10]
  pIC50: 8.83
TMD8 [11]
  Activity: 49.3%
TMD8 [12]
  Activity: 11.8%
TMD8 [13]
  Activity: 8.7%
TMD8 [14]
  Activity: 24.6%
TMD8 [15]
  Activity: 6.4%
TMD8 [16]
  Activity: 25.2%
[17]
  Activity: Non-Toxic
[18]
  Activity: Non-Toxic
[19]
  Activity: Non-Toxic
[20]
  Activity: Non-Toxic
TMD8 [21]
  Activity: Active
TMD8 [22]
  inhibition in vivo at 50 mg/kg: 104%
[23]
  Activity: Non-Toxic
[24]
  Activity: Toxic
[25]
  Activity: Toxic
[26]
  Activity: Non-Toxic
[27]
  Activity: Non-Toxic
[28]
  Activity: Non-Toxic
